Tests used:
UC3 and T24 cells = assay: Incucyte caspase-3/7 apoptosis assay; type: cell-based, human; conditions: red fluorescence over time
Method: UC3 and T24 cells were plated in 96-well plates at 3,500 cell/well and allowed to attach overnight. Increasing amounts of APX2009 or APX2014 were added to each well along with 1 μM of the caspase reagent (Caspase-3/7 Red, Essen Bioscience) and then the cells were allowed to recover for 2 hours prior to beginning imaging with the Incucyte system (Essen Bioscience). Each well was imaged for phase contrast as well as red fluorescence every 2 hours for 96 hours. The Incucyte software generated movies of the cells following treatment as well as real-time imaging data with red fluorescence normalized to the percent confluency of the well.
To assay for caspase-3/7 mediated apoptosis, the increase in red fluorescence was analyzed over time following the addition of APX2009 and APX2014.

NFκB = assay: NFκB-driven luciferase reporter; type: cell-based, human; conditions: T24 and UC3 cells induced with TNFa, IC50 concentration, 24 h
Method: FIGS. 36A-36H. […] In cytokine-induced T24 and UC3 cells NFκB-driven luciferase (FIG. 36A), STAT3-driven luciferase (FIG. 36B), and AP-1-driven luciferase (FIG. 36C) were quantified and normalized via Renilla following treatment with the corresponding cell growth-inhibitory IC50 concentrations. T24 cells were treated with APX2009 (8.5 μM) and APX2014 (6.5 μM), and UC3 cells were treated with APX2009 (6.1 μM) and APX2014 (4.6 μM) for 24 h. (*-p<0.05 APX treated vs vehicle, n=4). […] In the panels of FIGS. 36F & 36G, co-expression of survivin and APE1/Ref-1 was analyzed in superficial (FIG. 36F) and invasive human bladder tumors (FIG. 36G) in patients, and found nearly universal overlap of positivity in both in human samples. This was also true in cisplatin-refractory patients from the tissue microarray specimens (FIG. 36H).
The transcriptional activity of NFκB, STAT3, and AP-1 is under redox control by APE1/Ref-1. Therefore, NFκB, STAT3, or AP-1 transcriptional activity was quantified following treatment with APE1/Ref-1 redox inhibitors (FIGS. 36A-36C).

[1] = tested on: VEGF release from Hey-C2, SKOV-3X, Panc1, PaCa-2 and Igrov cells; assay: VEGF ELISA on cancer cell supernatants; type: cell-based, human; conditions: normoxia and hypoxia, about 24 hrs
Method: Inhibition of VEGF release. VEGF enzyme-linked immunosorbent assay (ELISA). Various cancer cell lines were plated in a 24-well plate and treated in duplicates with for about 24 hrs in normoxic (about 21% oxygen) or hypoxic (about 2% oxygen) condition. The supernatants of cells were collected and subjected to an ELISA assay with a kit specific for human VEGF according to the manufacturer (R&D Systems, Minneapolis, Minn.) VEGF ELISA assay results were read in a 96-well format plate reader by measuring absorbance at 450 nm with correction at 540 nm. Hypoxia induced an increase in VEGF release (FIG. 2). (For FIGS. 2-7, black bars=normoxia; gray bars=hypoxia.)
VEGF ELISA Assays. Hey-C2 (ovarian cancer), SKOV-3X (ovarian cancer), Pancl (pancreatic cancer), PaCa-2 (pancreatic cancer), and Igrov (ovarian cancer) cells were plated in a 24-well plate and treated in duplicates with (RN3-3 e) at different concentrations for about 24 hrs in normoxic (about 21% oxygen) or hypoxic (about 2% oxygen) condition. The supernatants of cells were collected and subjected to an ELISA assay with a kit specific for human VEGF according to the manufacturer (R&D Systems, Minneapolis, Minn.). VEGF ELISA assay results were read in a 96-well format plate reader by measuring absorbance at 450 nm with correction at 540 nm.

endothelial cells = assay: In vitro tube formation assay; type: cell-based
From the text: In vitro tube formation assay.

[2] = tested on: subretinal neovascularization (SNV) in vldlr-/- retina; assay: SNV in vldlr-/- knockout mice assay; type: in vivo; conditions: single intravitreal injection, one week after treatment
Method: SNV in vldlr−/− knockout mice assay. […] Experiments were carried out in very-low-density lipoprotein receptor (vldr) knockout mice to determine the effect of APX3330 on inhibition of SNV development in the vldlr−/− mutant. Each animal received a single intravitreal injection of 1 μl volume of BSS as a vehicle control and the fellow eye received 1 μl of […] APX3330. The final concentration of APX3330 was equivalent to approximately 20 μM in the retina. Quantitative measurement of SNV was carried out one week after the treatment in the whole mount retina after lectin-FITC staining. […] The apparent increase of SNV after antibody injection could be due to foreign protein triggered immune response which has been reported before (Tator et al., 2008). APX3330 reduced the number of SNV at a statistically significant level (p<0.01 in paired t-test). […] The Ape1/Ref-1 inhibitor offers a new approach to control angiogenesis for advanced macular degeneration (AMD) treatment.

OVCAR-3 tumor cells = assay: MTS cell survival assay OVCAR-3; type: cell-based, human; conditions: about 24 or 72 h
Method: Decreased cancer cell survival. MCF-7 or OVCAR-3 cells (about 2-4,000) were aliquoted into each well of a 96-well plate in triplicate and allowed to adhere overnight. APX3330 (RN3-3) was added to the cultures. After about 24 or 72 h, about 0.05 mg/mL 3-(4-5-Dimethylthiazol-2-yl)-5-(3-carboxymethoxyphenyl)-2-(4-sulfophenyl)-2H-tetrazolium salt (MTS) reagent was added to each well and incubated at about 37° C. for about 4 h followed by absorbance measurement at 490 nm. The values were standardized to wells containing media alone. […] Similar effects can be seen in multiple myeloma, prostate, non-small cell lung carcinoma, colon, and glioma derived cells.

[3] = Preliminary in vivo safety in mice (body weight); conditions: male mice, under 50 mg/kg

SMILES | caspase-3/7 activation (UC3 and T24 cells) | reduction of NFκB-driven luciferase activity (NFκB) [fold] | VEGF release [1] | tube formation, combination of AVASTIN and APX3330 (endothelial cells; combination use with AVASTIN) | formation of blood-vessel-like tubules (endothelial cells; dose dependent) | individuals with reduced number of SNV in treated eye [2] | reduction of number of SNV [2] [%] | killing of OVCAR-3 tumor cells (OVCAR-3 tumor cells) | mouse toxicity [3]
CCC/C(=C\C1=C(OC)C(=O)c2ccccc2C1=O)C(=O)N(CC)CC [APX2009, [(2E)-2-[(3-methoxy-1,4-dioxo-1,4-dihydronaphthalen-2-yl)methylidene]-N,N-diethylpentanamide]] | dose-dependent increase in caspase activation | 2 |  |  |  |  |  |  | 
CCCCCCCCC/C(=C\C1=C(C)C(=O)C(OC)=C(OC)C1=O)C(=O)O [APX3330] |  |  | reduced the amount of VEGF release | synergistically more effective than either alone | prevented formation of blood-vessel-like tubules | 17/20 | ~30 | dose dependently killed | No mouse toxicity was observed

— US11331294B2, “Benzoquinone derivative E3330 in combination with chemotherapeutic agents for the treatment of bladder cancer” (Indiana University Research and Technology Corporation, priority 2007, dated 2022)
